{
  "source": "paper PMC8398878",
  "about": "“Synthesis, Physicochemical Characterization, In Vitro 2D/3D Human Cell Culture, and In Vitro Aerosol Dispersion Performance of Advanced Spray Dried and Co-Spray Dried Angiotensin (1—7) Peptide and PNA5 with Trehalose as Microparticles/Nanoparticles for Targeted Respiratory Delivery as Dry Powder …” (Pharmaceutics, 2021)",
  "key": {"[1]": {"test": "Solubility by shake-flask method (SFM) with HPLC", "assay_type": "physicochemical", "description": "The solubilities of Ang (1—7) and PNA5 were determined by the SFM using conditions similar to previously reported by our group and in [39, 40, 41, 42]. Each compound’s excess powder was added to a specific volume of different solvents (purified water, phosphate buffered saline (PBS), normal saline (NS), methanol, and ethanol) in closed, light-protected glass vials. The solutions containing excess solid of Ang (1—7) and PNA5 were then capped and agitated at room temperature (25 °C) using a shaker. More powder was added to the vial if the dissolution was complete. The pH value of Ang (1—7) and PNA5 suspensions were adjusted to pH 6.5 (pseudo-isoelectric point calculated by MOE software) to determine the zwitterionic species’ solubilities and ensure the predominant presence of the unionized form of Ang (1—7) and PNA5. The separation of the saturated solution and the precipitate was performed by sedimentation. Aliquots of supernatants were withdrawn from all saturated solutions, diluted with each corresponding solvent, and injected into analytical HPLC. Each compound in each aliquot was measured against a calibration curve using the previously developed analytical HPLC method in our lab. Each compound’s solubility experiments in all solvents were repeated three times (n = 3, mean ± standard deviation).\nThe HPLC system is LC-2010HT next-generation HPLC (SHIMADZU Tokyo, Japan), and it is the same as previously used in [24]. This system consists of a degassing unit, low-pressure gradient unit, pump unit, mixer, ultra-fast autosampler, column oven, and a UV-VIS detector with a thermostatted flow cell system. The analysis was performed by a reverse phase HPLC assay, using Phenomenex Prodigy 5 um ODS (3) 250 × 4.6 mm HPLC Column. Ultraviolet detection was done at 280 nm. Mobile phase condition was a gradient of acetonitrile in water with 0.1% trifluoroacetic acid at two different percentages pumped from two pumps. The flow was 1 mL/min, the injection volume was 20 μL; the retention time for Ang (1—7) was ~7.7 min and for PNA5 was ~6.7 min. Quantification for both compounds was determined using peak area and calculated from freshly prepared standard curves."}, "[2]": {"tested_on": "RPMI 2650 nasal epithelium cells", "test": "In vitro 2D cell viability, resazurin assay", "details": "for safe (non-toxic) concentration: nasal epithelium cells (RPMI2650)", "procedure": "(§1) In vitro human cell viability assays were performed to measure the biocompatibility and safety of Ang (1—7) and PNA5 on nasal epithelium RPMI 2650 cells, hCMEC/D3 blood–brain barrier endothelial cells, NHA, A549, and H441 lung cells using resazurin as a marker.\n(§2) Human nasal epithelial cells (RPMI 2650) with passage numbers between 9 and 13 were used for the experiments. Eagle’s Minimum Essential Medium (EMEM) (ATCC® 30-2003™) supplemented with 10% (v/v) fetal bovine serum (FBS), 1% (v/v) Pen-Strep (100 Unit/mL penicillin, 100 μg/mL streptomycin), 0.2% (v/v) and fungizone (0.5 μg/mL amphotericin) was used to grow cells in a humidified incubator at 37 °C and 5% CO2. Normal Human Astrocytes (NHA) at passages 1 and 3 were used for the experiments. A supplements kit for a complete growth medium AGM™ SingleQuots™ (Lonza, CC-4123) was added to the growth medium of Astrocyte basal medium ABM™ (Lonza, CC-3187).\n(§3) For passage, all the cell types were detached when confluence reached about 80% by treating the cells with trypsin-EDTA at 37 °C. The effects of Ang (1—7) and PNA5 on cell proliferation were analyzed by measuring all of the above cell line responses to different concentrations of Ang (1—7) and PNA5 separately. The cells were seeded in 96-well black plates at a specific density and were kept to attach for 48 h. Then, the media containing compounds were removed from each well and replaced by 100 μL of media containing 20 μM resazurin sodium salt (was dissolved in un-supplemental media) and incubated for 4 h at 37 °C and 5% CO2. The fluorescence intensity of the metabolite (resorufin) produced by the viable cells was measured at 544 nm (the excitation) and 590 nm (the emission) using the Synergy H1 Multi-Mode Reader (BioTek Instruments Inc., Winooski, VT, USA). The relative cell viability of the cell line was calculated using Equation (6):(6) Relative viability %=Sample fluorescence intensity/Control fluorescence intensity×100%"}, "[3]": {"tested_on": "Normal Human Astrocytes (NHA)", "test": "In vitro 2D cell viability, resazurin assay", "details": "for safe (non-toxic) concentration: astrocyte brain cells (NHA)", "procedure": "as §1, §2, §3"}, "[4]": {"tested_on": "hCMEC/D3 blood–brain barrier endothelial cells", "test": "In vitro 2D cell viability, resazurin assay", "details": "for safe (non-toxic) concentration: endothelial brain cells (hCMEC/D3)", "procedure": "as §1\nThe immortalized human cerebral microvascular endothelial (hCMEC/D3) at passages 29 and 31 were seeded on collagen-coated culture flasks. Cells were grown in EndoGRO™-MV Complete Media Kit (cat. no. SCME004) supplemented with one ng/mL FGF-2 (cat. no. GF003) and kept in a humidified incubator at 37 °C and 5% CO2.\nas §3"}, "[5]": {"tested_on": "A549 lung epithelial cells", "test": "In vitro 2D cell viability, resazurin assay", "details": "for safe (non-toxic) concentration: epithelium lung cells (A549)", "procedure": "as §1\n(§4) A549 adenocarcinoma human alveolar basal epithelial cells (ATCC® CCL-185™) and H441 lung adenocarcinoma cells (ATCC®HTB174™) were used at passages 9 and 8, respectively, for the experiments. Both cell types were grown in a growth in RPMI Medium 1640 (1X) (Gibco, 11875-093, 500 mL) supplemented with 10% v/v fetal bovine serum (FBS), 0.2% v/v fungizone (0.5 μg/mL amphotericin), 1% v/v Pen-Strep (100 Unit/mL penicillin, 100 μg/mL streptomycin). The cells were kept in a humidified incubator at 37 °C and 5% CO2.\nas §3"}, "[6]": {"tested_on": "H441 lung epithelial cells", "test": "In vitro 2D cell viability, resazurin assay", "details": "for safe (non-toxic) concentration: epithelium lung cells (H441)", "procedure": "as §1, §4, §3"}, "[7]": {"test": "Karl Fisher coulometric titration, residual water content", "assay_type": "physicochemical", "details": "n = 3", "description": "All powders’ residual water content was quantified by KFT coulometrically using conditions similar to previously reported. A TitroLine® 7500 trace titrator (SI Analytics, Mainz, Germany) was used. A mass of 1–2 mg of powder sample was dissolved in 0.5 mL AQUA STAR anhydrous methanol and injected the sample solution into a reaction cell filled with Hydranal® Coulomat AD reagent. Then obtain the water content of the sample a simple calculation. All experiments were done in triplicate (n = 3)."}},
  "note": "Like-named read-outs stand apart in the source and are kept apart here. Peptide text beside a SMILES is read from it. * marks the point of attachment. βGlc = OC[C@H]1O[C@@H](*)[C@H](O)[C@@H](O)[C@@H]1O",
  "data": [
    {"smiles": "CC[C@H](C)[C@H](NC(=O)[C@H](Cc1ccc(O)cc1)NC(=O)[C@@H](NC(=O)[C@H](CCCNC(=N)N)NC(=O)[C@@H](N)CC(=O)O)C(C)C)C(=O)N[C@@H](Cc1c[nH]cn1)C(=O)N1CCC[C@H]1C(=O)O", "note": "[Ang (1—7), Asp-Arg-Val-Tyr-Ile-His-Pro]", "values": [
      {"measurement": "Solubility Category According to USP Definition", "setting": "[1]; Ethanol", "result": "Very slightly soluble (VSS)"},
      {"measurement": "solubility", "setting": "[1]; Ethanol, 25 °C, n = 3, read-out: Solubility", "result": "0.16 ± 0.001", "unit": "mg/mL"},
      {"measurement": "solubility", "setting": "[1]; Ethanol, footnote: S in mMole unit, read-out: LogS (experimental) (converted)", "result": 0.178, "unit": "mM"},
      {"measurement": "solubility", "setting": "[1]; H2O, footnote: S in mMole unit, read-out: LogS (experimental) (converted)", "result": 195, "unit": "mM"},
      {"measurement": "solubility", "setting": "[1]; H2O, read-out: Solubility Category According to USP Definition", "result": "100 to 1000", "unit": "mg/mL"},
      {"measurement": "Solubility Category According to USP Definition", "setting": "[1]; Methanol", "result": "Slightly soluble (SS)"},
      {"measurement": "solubility", "setting": "[1]; Methanol, 25 °C, n = 3, read-out: Solubility", "result": "1 ± 0.005", "unit": "mg/mL"},
      {"measurement": "solubility", "setting": "[1]; Methanol, footnote: S in mMole unit, read-out: LogS (experimental) (converted)", "result": 1.12, "unit": "mM"},
      {"measurement": "solubility", "setting": "[1]; NS, footnote: S in mMole unit, read-out: LogS (experimental) (converted)", "result": 155, "unit": "mM"},
      {"measurement": "solubility", "setting": "[1]; NS, read-out: Solubility Category According to USP Definition", "result": "100 to 1000", "unit": "mg/mL"},
      {"measurement": "Solubility Category According to USP Definition", "setting": "[1]; PBS", "result": "Freely Soluble (FS)"},
      {"measurement": "solubility", "setting": "[1]; PBS, footnote: S in mMole unit, read-out: LogS (experimental) (converted)", "result": 186, "unit": "mM"},
      {"measurement": "solubility", "setting": "[1]; pH 6.5, H2O, pH 6.5, 25 °C, n = 3, read-out: Solubility", "result": "174 ± 0.19", "unit": "mg/mL"},
      {"measurement": "solubility", "setting": "[1]; pH 6.5, NS (normal saline), pH 6.5, 25 °C, n = 3, read-out: Solubility", "result": "140.4 ± 0.32", "unit": "mg/mL"},
      {"measurement": "solubility", "setting": "[1]; pH 6.5, PBS, pH 6.5, 25 °C, n = 3, read-out: Solubility", "result": "165.4 ± 0.34", "unit": "mg/mL"},
      {"measurement": "safe (non-toxic) concentration", "setting": "[2]", "result": "up to 1000 μg/mL"},
      {"measurement": "safe (non-toxic) concentration", "setting": "[3]", "result": "up to 1000 μg/mL"},
      {"measurement": "safe (non-toxic) concentration", "setting": "[4]", "result": "up to 1000 μg/mL"},
      {"measurement": "safe (non-toxic) concentration", "setting": "[5]", "result": "up to 1000 μg/mL"},
      {"measurement": "safe (non-toxic) concentration", "setting": "[6]", "result": "up to 1000 μg/mL"}
    ]},
    {"smiles": "CC[C@H](C)[C@H](NC(=O)[C@H](Cc1ccc(O)cc1)NC(=O)[C@@H](NC(=O)[C@H](CCCNC(=N)N)NC(=O)[C@@H](N)CC(=O)O)C(C)C)C(=O)N[C@@H](Cc1c[nH]cn1)C(=O)N[C@@H](CO[C@@H]1O[C@H](CO)[C@@H](O)[C@H](O)[C@H]1O)C(N)=O", "note": "[PNA5, Asp-Arg-Val-Tyr-Ile-His-Ser-(O-β-D-Glc)-amide] (H-DRVYIHS(βGlc)-NH2)", "values": [
      {"measurement": "Solubility Category According to USP Definition", "setting": "[1]; Ethanol", "result": "Very slightly soluble (VSS)"},
      {"measurement": "Solubility Category According to USP Definition", "setting": "[1]; Methanol", "result": "Very slightly soluble (VSS)"},
      {"measurement": "solubility thermodynamic", "setting": "[1]; NS (normal saline), pH 6.5, 25 °C, n = 3", "result": "269.3 ± 1.53", "unit": "mg/mL"},
      {"measurement": "solubility", "setting": "[1]; ethanol, 25 °C, n = 3, read-out: Solubility", "result": "0.12 ± 0.003", "unit": "mg/mL"},
      {"measurement": "solubility", "setting": "[1]; ethanol, footnote: S in mMole unit, read-out: LogS (experimental) (converted)", "result": 0.115, "unit": "mM"},
      {"measurement": "solubility", "setting": "[1]; methanol, 25 °C, n = 3, read-out: Solubility", "result": "0.34 ± 0.01", "unit": "mg/mL"},
      {"measurement": "solubility", "setting": "[1]; methanol, footnote: S in mMole unit, read-out: LogS (experimental) (converted)", "result": 0.331, "unit": "mM"},
      {"measurement": "solubility", "setting": "[1]; normal saline (NS), pH 6.5, NS, footnote: S in mMole unit, read-out: LogS (experimental) (converted)", "result": 257, "unit": "mM"},
      {"measurement": "solubility", "setting": "[1]; normal saline (NS), pH 6.5, NS, read-out: Solubility Category According to USP Definition", "result": "100 to 1000", "unit": "mg/mL"},
      {"measurement": "solubility", "setting": "[1]; phosphate buffered saline (PBS), pH 6.5, PBS, footnote: S in mMole unit, read-out: LogS (experimental) (converted)", "result": 288, "unit": "mM"},
      {"measurement": "solubility", "setting": "[1]; phosphate buffered saline (PBS), pH 6.5, PBS, read-out: Solubility Category According to USP Definition", "result": "100 to 1000", "unit": "mg/mL"},
      {"measurement": "solubility thermodynamic", "setting": "[1]; phosphate buffered saline (PBS), PBS, pH 6.5, 25 °C, n = 3", "result": "305.05 ± 0.22", "unit": "mg/mL"},
      {"measurement": "solubility", "setting": "[1]; purified water, pH 6.5, H2O, footnote: S in mMole unit, read-out: LogS (experimental) (converted)", "result": 263, "unit": "mM"},
      {"measurement": "solubility", "setting": "[1]; purified water, pH 6.5, H2O, read-out: Solubility Category According to USP Definition", "result": "100 to 1000", "unit": "mg/mL"},
      {"measurement": "solubility thermodynamic", "setting": "[1]; purified water, H2O, pH 6.5, 25 °C, n = 3", "result": "275.3 ± 2.31", "unit": "mg/mL"},
      {"measurement": "relative cell viability% vs control cells", "setting": "[2]; RPMI2650, 0.1, 1, 10 and 1000 µg/mL, p > 0.05, n = 6", "result": "no statistically significant difference"},
      {"measurement": "safe (non-toxic) concentration", "setting": "[2]", "result": "up to 1000 μg/mL"},
      {"measurement": "relative cell viability% vs control cells", "setting": "[3]; NHA, 0.1, 1, 10 and 1000 µg/mL, p > 0.05, n = 6", "result": "no statistically significant difference"},
      {"measurement": "safe (non-toxic) concentration", "setting": "[3]", "result": "up to 1000 μg/mL"},
      {"measurement": "safe (non-toxic) concentration", "setting": "[4]", "result": "up to 1000 μg/mL"},
      {"measurement": "relative cell viability% vs control cells", "setting": "[4]; hCMEC/D3, 0.1, 1, 10 and 1000 µg/mL, p > 0.05, n = 6", "result": "no statistically significant difference"},
      {"measurement": "relative cell viability% vs control cells", "setting": "[5]; A549, 0.1, 1, 10 and 1000 µg/mL, p > 0.05, n = 6", "result": "no statistically significant difference"},
      {"measurement": "safe (non-toxic) concentration", "setting": "[5]", "result": "up to 1000 μg/mL"},
      {"measurement": "relative cell viability% vs control cells", "setting": "[6]; H441, 0.1, 1, 10 and 1000 µg/mL, p > 0.05, n = 6", "result": "no statistically significant difference"},
      {"measurement": "safe (non-toxic) concentration", "setting": "[6]", "result": "up to 1000 μg/mL"}
    ]},
    {"smiles": "OC[C@H]1O[C@H](O[C@H]2O[C@H](CO)[C@@H](O)[C@H](O)[C@H]2O)[C@H](O)[C@@H](O)[C@@H]1O", "note": "[Raw Trehalose, D (+)-Trehalose dihydrate]", "values": [
      {"measurement": "Water % (w/w)", "setting": "[7]", "result": "8.55 ± 1.50 % (w/w)"}
    ]}
  ]
}
